Results reported in paper PMC8208785, “Therapeutic efficacy of novel memantine nitrate MN‐08 in animal models of Alzheimer’s disease” (Aging Cell, 2021).

Legend:
3×Tg‐AD mice = assay: behavioral tests (SDA, NOR, MWM), treatment study in 3×Tg-AD mice; type: in vivo; conditions: 3, 6, and 12 mg/kg, vs vehicle
Procedure: Triple transgenic 3×Tg‐AD mice were acquired from Jackson Laboratory and fostered in the Shenzhen Center for Disease Control and Prevention (Shenzhen, China). Eight‐month‐old 3×Tg‐AD mice were categorized into six groups: (1) 3×Tg‐AD +Vehicle group; (2) 3×Tg‐AD +MN‐08 (3 mg/kg) group; (3) 3×Tg‐AD +MN‐08 (6 mg/kg) group; (4) 3×Tg‐AD +MN‐08 (12 mg/kg) group; (5) 3×Tg‐AD +Memantine (Mem, 5 mg/kg) group; (6) 3×Tg‐AD +Donepezil (Done, 1.3 mg/kg, once daily) group; (7) Eight‐month‐old B6129SF2/J mice as a control group. MN‐08 and memantine were given twice daily (Done, once daily) by gastric gavage for 4 months from 8 months of age.
The step-down avoidance (SDA) test was performed as previously described (Zhou et al., 2019). During the training phase, mice were singly placed on a metal floor with electrical stimulation (35 V) for 5 min. After 24 hours, the mouse was positioned on a wooden platform, while the metal floor at the bottom delivered an electrical shock (35 V) for another 5 min. The time for the animal to step down from the wooden platform were recorded as the step-down latency to evaluate retention memory.
Hippocampus-dependent spatial memory was determined by the Morris water maze (MWM) test according to the protocol described in a previous study (Jiao et al., 2015). The MWM test includes a platform training phase and a probe trial phase. An escape platform was placed in a fixed spatial location. During the training phase, each animal was placed at one of four different starting positions and tested four times a day with an interval of approximately 30 min. The animal in the water was immediately removed when it swam to the escape platform within 60 s. […] After the training phase, the probe trial was performed on the sixth day when the platform was removed. The animal was placed in the same starting position in the pool and allowed to move freely for 2 min. The animal swimming track was recorded and analyzed with a digital camera.
The novel object recognition test was performed to assess non-spatial working memory according to previously published protocols (Choi et al., 2011). Firstly, each animal was sequentially placed into a square box (50 × 50 × 50 cm, length × width × height) without any objects for 10 min per day for 2 continuous days to habituate to the environment. Then, two identical objects were placed parallel near one wall of the square box. Animals were placed singly in the box and allowed to explore the objects for 10 min. […] The time each animal took to examine the familiar object and novel object was recorded by digital camera. The discrimination index was calculated according to the following expression: (novel object (s) - familiar object (s))/ (novel object (s) + familiar object (s)). […]

intact narcotized rats = system: intact narcotized rats; set-up: method as in Mirzoyan et al., 2014; conditions: intact narcotized rats and animals with global transient ischemia; ref Mirzoyan et al., 2014; cited from earlier work

| Compound | step‐down latency (3×Tg‐AD mice; 4 months from 8 months of age) | discrimination index (NOR) (3×Tg‐AD mice; 4 months) | escape latency time (MWM) (3×Tg‐AD mice; 4 months) | number of crossings (MWM) (3×Tg‐AD mice; 4 months) | local cerebral blood flow (CBF) in the brain cortices (intact narcotized rats) |
| --- | --- | --- | --- | --- | --- |
| CCC12CC3CC(N)(C1)CC(CO[N+](=O)[O-])(C3)C2 (centres unmarked) [MN‐08] | significant increase | significant increase | significant reduction | significant increase |  |
| CC12CC3CC(C)(C1)CC(N)(C3)C2 [memantine, 1‐amino‐3,5‐dimethyladamantane] |  |  |  |  | reduce |
